{
  "source": "patent US20200239530A1",
  "about": "“COMPOUNDS AND METHODS OF MODULATING PROTEIN DEGRADATION” (Vividion Therapeutics, Inc., priority 2017, published 2020)",
  "format_in_all_cases": "binding",
  "key": {"[1]": {"molecular_target": "T1, UniProt Q86UD3 (Homo sapiens, UniProt Q86UD3)", "T1 construct": "Cells were resuspended in cold PBS on ice and sonicated with a probe sonicator to achieve lysis; endogenous in cells", "T1 sequence (Q86UD3 1-253)": "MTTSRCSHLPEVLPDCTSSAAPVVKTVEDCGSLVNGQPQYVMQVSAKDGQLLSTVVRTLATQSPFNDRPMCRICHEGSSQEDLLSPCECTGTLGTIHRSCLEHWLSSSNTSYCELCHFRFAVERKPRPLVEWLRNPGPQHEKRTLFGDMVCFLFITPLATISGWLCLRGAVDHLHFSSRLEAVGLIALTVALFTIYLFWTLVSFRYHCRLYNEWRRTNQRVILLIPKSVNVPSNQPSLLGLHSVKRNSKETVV", "test": "Cysteine liganding, probe competition", "from_the_text": "(§1) The following 96-well sample prep protocol was used for sample preparation."}, "[2]": {"molecular_target": "T2, UniProt Q9BR09 (Homo sapiens, UniProt Q9BR09)", "T2 construct": "Cells were resuspended in cold PBS on ice and sonicated with a probe sonicator to achieve lysis; endogenous in cells", "T2 sequence (Q9BR09 whole entry, change not shown)": "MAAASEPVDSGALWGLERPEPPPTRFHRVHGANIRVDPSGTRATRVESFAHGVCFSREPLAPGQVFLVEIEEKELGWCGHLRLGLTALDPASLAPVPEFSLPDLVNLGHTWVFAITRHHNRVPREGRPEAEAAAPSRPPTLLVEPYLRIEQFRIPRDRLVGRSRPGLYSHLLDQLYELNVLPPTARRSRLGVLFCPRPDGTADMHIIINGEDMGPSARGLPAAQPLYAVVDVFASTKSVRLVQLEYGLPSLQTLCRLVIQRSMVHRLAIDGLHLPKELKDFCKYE", "test": "Cysteine liganding, probe competition", "conditions": "read-out: percent inhibition", "from_the_text": "as §1"}, "[3]": {"molecular_target": "T3, UniProt Q96EH8 (Homo sapiens, UniProt Q96EH8)", "T3 construct": "Cells were resuspended in cold PBS on ice and sonicated with a probe sonicator to achieve lysis; endogenous in cells", "T3 sequence (Q96EH8 1-262)": "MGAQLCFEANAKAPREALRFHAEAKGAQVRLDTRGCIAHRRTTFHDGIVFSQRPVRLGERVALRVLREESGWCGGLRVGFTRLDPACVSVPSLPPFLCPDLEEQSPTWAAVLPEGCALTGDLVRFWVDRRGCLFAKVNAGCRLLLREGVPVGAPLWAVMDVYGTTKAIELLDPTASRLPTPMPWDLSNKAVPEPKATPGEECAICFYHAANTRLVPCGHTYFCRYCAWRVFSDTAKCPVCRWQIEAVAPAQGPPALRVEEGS", "test": "Cysteine liganding, probe competition", "conditions": "for inhibition at 500 µM: read-out: percent inhibition", "from_the_text": "as §1"}, "[4]": {"molecular_target": "T4, Q96Q07 (Homo sapiens, UniProt Q96Q07)", "T4 construct": "200 μL of lysate containing 5 mg/ml proteome was treated with 2 μL of 100× compound stock; endogenous in cells", "T4 sequence (Q96Q07 1-612)": "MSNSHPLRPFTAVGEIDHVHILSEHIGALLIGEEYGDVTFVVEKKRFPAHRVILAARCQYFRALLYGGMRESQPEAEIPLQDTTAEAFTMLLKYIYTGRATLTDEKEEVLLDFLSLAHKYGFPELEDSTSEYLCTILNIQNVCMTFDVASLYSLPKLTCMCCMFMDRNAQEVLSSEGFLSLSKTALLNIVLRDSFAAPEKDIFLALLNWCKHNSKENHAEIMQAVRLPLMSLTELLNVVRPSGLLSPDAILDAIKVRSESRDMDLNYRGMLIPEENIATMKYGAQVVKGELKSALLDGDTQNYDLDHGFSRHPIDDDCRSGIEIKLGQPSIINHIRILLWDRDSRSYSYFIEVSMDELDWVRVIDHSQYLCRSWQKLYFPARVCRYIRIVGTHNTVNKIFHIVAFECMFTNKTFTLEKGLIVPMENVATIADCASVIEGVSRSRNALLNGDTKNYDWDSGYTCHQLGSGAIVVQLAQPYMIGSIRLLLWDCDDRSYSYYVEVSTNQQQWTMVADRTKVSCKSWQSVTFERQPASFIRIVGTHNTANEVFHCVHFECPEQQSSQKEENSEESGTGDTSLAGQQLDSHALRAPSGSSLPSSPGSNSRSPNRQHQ", "test": "Competitive cysteine profiling, probe competition (Table 2B)", "from_the_text": "as §1"}, "[5]": {"molecular_target": "T5, Q9C0C7 (Homo sapiens, UniProt Q9C0C7)", "T5 construct": "Cells were resuspended in cold PBS on ice and sonicated with a probe sonicator to achieve lysis; endogenous in cells", "T5 sequence (Q9C0C7 1-1298)": "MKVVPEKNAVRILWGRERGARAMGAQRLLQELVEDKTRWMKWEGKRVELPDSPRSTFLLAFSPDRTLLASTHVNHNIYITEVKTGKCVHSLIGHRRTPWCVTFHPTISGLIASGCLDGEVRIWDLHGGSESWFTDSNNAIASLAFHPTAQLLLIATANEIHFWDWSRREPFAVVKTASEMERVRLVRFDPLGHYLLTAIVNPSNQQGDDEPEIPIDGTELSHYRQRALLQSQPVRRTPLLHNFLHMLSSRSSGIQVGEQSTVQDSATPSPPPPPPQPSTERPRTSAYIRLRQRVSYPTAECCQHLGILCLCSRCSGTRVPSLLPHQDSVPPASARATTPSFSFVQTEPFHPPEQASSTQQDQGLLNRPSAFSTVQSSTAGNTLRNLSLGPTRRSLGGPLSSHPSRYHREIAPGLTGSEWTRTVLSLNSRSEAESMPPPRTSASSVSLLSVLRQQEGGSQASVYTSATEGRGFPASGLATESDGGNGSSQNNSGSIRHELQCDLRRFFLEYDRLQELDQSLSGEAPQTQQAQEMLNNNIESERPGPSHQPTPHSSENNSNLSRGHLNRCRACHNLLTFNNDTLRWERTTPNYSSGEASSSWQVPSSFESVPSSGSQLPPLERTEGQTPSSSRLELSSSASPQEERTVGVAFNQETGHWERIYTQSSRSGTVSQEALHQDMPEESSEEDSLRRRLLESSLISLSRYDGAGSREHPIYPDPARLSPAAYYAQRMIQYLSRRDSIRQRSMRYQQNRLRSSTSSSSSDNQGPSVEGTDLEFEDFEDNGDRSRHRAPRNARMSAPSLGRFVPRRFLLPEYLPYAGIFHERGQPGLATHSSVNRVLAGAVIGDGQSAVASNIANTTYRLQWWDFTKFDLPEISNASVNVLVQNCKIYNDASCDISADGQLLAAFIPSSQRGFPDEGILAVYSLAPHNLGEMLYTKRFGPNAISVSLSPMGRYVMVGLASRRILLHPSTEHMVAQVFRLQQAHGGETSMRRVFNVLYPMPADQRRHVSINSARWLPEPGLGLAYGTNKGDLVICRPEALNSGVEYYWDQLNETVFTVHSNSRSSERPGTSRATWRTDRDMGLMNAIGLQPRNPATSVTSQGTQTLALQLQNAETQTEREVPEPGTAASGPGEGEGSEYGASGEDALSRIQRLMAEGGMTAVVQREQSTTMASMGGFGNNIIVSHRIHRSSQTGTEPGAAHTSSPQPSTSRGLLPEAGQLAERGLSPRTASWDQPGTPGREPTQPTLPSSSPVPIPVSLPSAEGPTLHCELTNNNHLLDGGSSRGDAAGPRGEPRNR", "test": "Competitive cysteine profiling, probe competition (Table 2B)", "from_the_text": "as §1"}, "[6]": {"molecular_target": "T6, UniProt Q496Y0 (Homo sapiens, UniProt Q496Y0)", "T6 construct": "200 μL of lysate containing 5 mg/ml proteome was treated with 2 μL of 100× compound stock; endogenous in cells", "T6 sequence (Q496Y0 whole entry, change not shown)": "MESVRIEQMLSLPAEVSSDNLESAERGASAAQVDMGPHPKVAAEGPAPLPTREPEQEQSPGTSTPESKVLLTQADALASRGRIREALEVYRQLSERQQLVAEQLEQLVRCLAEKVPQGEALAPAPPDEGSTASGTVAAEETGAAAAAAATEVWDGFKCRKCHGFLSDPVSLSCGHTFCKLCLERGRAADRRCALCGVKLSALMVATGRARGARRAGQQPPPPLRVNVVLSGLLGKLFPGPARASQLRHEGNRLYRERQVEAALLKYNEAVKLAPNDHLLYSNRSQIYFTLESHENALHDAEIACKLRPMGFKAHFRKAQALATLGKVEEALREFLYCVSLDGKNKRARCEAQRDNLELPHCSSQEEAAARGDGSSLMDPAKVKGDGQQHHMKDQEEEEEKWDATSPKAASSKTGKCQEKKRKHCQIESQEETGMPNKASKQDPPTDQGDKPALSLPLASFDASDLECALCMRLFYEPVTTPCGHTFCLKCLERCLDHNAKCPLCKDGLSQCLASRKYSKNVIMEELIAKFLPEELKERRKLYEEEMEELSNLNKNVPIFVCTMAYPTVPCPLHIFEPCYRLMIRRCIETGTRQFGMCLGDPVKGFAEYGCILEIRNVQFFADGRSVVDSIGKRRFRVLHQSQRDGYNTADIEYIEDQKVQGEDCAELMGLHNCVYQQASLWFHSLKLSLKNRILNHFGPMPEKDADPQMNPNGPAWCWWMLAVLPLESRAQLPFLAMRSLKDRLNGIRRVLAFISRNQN", "test": "Cysteine liganding, probe competition", "from_the_text": "as §1"}, "[7]": {"molecular_target": "T7, UniProt Q86SE9 (Homo sapiens, UniProt Q86SE9)", "T7 construct": "200 μL of lysate containing 5 mg/ml proteome was treated with 2 μL of 100× compound stock; endogenous in cells", "T7 sequence (Q86SE9 whole entry, change not shown)": "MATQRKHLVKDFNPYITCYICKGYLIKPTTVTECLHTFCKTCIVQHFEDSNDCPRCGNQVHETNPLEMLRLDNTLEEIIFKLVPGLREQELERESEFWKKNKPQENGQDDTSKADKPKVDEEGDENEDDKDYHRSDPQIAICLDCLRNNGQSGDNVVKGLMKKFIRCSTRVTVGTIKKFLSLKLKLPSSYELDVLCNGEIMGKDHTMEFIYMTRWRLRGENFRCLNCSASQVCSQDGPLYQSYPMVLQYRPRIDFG", "test": "Cysteine liganding, probe competition", "from_the_text": "as §1"}, "[8]": {"molecular_target": "T8, Q9UJX4 (Homo sapiens, UniProt Q9UJX4)", "T8 construct": "Cells were resuspended in cold PBS on ice and sonicated with a probe sonicator to achieve lysis; endogenous in cells", "T8 sequence (Q9UJX4 whole entry)": "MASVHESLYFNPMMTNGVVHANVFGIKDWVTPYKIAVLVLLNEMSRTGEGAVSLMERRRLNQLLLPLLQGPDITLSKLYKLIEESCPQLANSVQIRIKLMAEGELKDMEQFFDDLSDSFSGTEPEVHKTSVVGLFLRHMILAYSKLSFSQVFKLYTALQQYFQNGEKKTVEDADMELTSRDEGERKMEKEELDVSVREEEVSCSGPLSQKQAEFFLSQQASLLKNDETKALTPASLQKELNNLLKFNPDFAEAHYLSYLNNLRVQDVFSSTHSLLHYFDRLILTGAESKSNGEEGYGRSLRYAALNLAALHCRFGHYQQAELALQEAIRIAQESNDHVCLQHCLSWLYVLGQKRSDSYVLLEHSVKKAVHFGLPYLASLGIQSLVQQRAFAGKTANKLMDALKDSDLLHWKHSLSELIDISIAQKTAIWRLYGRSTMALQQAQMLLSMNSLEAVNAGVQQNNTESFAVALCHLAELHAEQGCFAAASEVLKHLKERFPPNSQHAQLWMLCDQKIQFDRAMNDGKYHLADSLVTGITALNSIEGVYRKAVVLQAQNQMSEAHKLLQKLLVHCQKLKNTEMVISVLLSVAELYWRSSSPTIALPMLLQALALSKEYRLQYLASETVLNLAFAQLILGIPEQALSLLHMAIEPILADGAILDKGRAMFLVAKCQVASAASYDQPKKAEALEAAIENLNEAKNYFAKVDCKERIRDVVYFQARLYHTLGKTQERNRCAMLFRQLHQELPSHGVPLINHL", "test": "Competitive cysteine profiling, probe competition (Table 2B)", "from_the_text": "as §1"}, "[9]": {"conditions": "100 uM, read-out: percent inhibition"}, "[10]": {"conditions": "500 uM, read-out: percent inhibition"}, "[11]": {"conditions": "100 uM, read-out: KB05_100 uM_percent_inhibition"}, "[12]": {"conditions": "500 uM, read-out: KB05_500 uM_percent_inhibition"}},
  "note": "Read-outs that look alike come from different tables or passages of the source.",
  "data": [
    {"smiles": "COc1ccc2c(c1)CCCN2C(=O)CCl", "note": "[KB02]", "values": [
      {"measurement": "inhibition at 100 µM", "setting": "[1]; [9]", "value": 34, "unit": "%"},
      {"measurement": "inhibition at 500 µM", "setting": "[1]; [10]", "value": 77, "unit": "%"},
      {"measurement": "inhibition at 500 µM", "setting": "[2]", "value": 32, "unit": "%"},
      {"measurement": "percent inhibition", "setting": "[3]; 500 uM", "value": 54, "unit": "%"},
      {"measurement": "inhibition at 500 µM", "setting": "[3]", "value": 40, "unit": "%"},
      {"measurement": "KB02_500 uM_percent_inhibition", "setting": "[4]; 500 uM", "value": 45, "unit": "%"},
      {"measurement": "inhibition at 500 µM", "setting": "[4]; read-out: KB02_500 uM_percent_inhibition", "value": 54, "unit": "%"},
      {"measurement": "KB02_100 uM_percent_inhibition", "setting": "[5]; 100 uM", "value": 49, "unit": "%"},
      {"measurement": "inhibition at 100 µM", "setting": "[5]; read-out: KB02_100 uM_percent_inhibition", "value": 48, "unit": "%"}
    ]},
    {"smiles": "C=CC(=O)N(c1ccccc1)c1ccc(Br)cc1", "note": "[KB05]", "values": [
      {"measurement": "inhibition at 100 µM", "setting": "[6]; [9]", "value": 26, "unit": "%"},
      {"measurement": "percent inhibition", "setting": "[6]; 500 uM", "value": 52, "unit": "%"},
      {"measurement": "inhibition at 500 µM", "setting": "[6]; [10]", "value": 47, "unit": "%"},
      {"measurement": "inhibition at 500 µM", "setting": "[2]", "value": 3, "unit": "%"},
      {"measurement": "inhibition at 100 µM", "setting": "[7]; [11]", "value": 9, "unit": "%"},
      {"measurement": "KB05_500 uM_percent_inhibition", "setting": "[7]; 500 uM", "value": 58, "unit": "%"},
      {"measurement": "inhibition at 500 µM", "setting": "[7]; [12]", "value": 53, "unit": "%"},
      {"measurement": "inhibition at 500 µM", "setting": "[3]", "value": 44, "unit": "%"},
      {"measurement": "inhibition at 500 µM", "setting": "[4]; read-out: KB05_500 uM_percent_inhibition", "value": 65, "unit": "%"},
      {"measurement": "inhibition at 100 µM", "setting": "[8]; [11]", "value": 9, "unit": "%"},
      {"measurement": "inhibition at 500 µM", "setting": "[8]; [12]", "value": 74, "unit": "%"},
      {"measurement": "KB05_100 uM_percent_inhibition", "setting": "[5]; 100 uM", "value": 25, "unit": "%"},
      {"measurement": "inhibition at 100 µM", "setting": "[5]; read-out: KB05_100 uM_percent_inhibition", "value": 23, "unit": "%"}
    ]},
    {"smiles": "O=C(CCl)Nc1cc(C(F)(F)F)cc(C(F)(F)F)c1", "note": "[KBO3]", "values": [
      {"measurement": "percent inhibition", "setting": "[1]; 500 uM", "value": 66, "unit": "%"},
      {"measurement": "percent inhibition", "setting": "[6]; 500 uM", "value": 26, "unit": "%"},
      {"measurement": "KB03_100 uM_percent_inhibition", "setting": "[7]; 100 uM", "value": 25, "unit": "%"},
      {"measurement": "KB03_100 uM_percent_inhibition", "setting": "[8]; 100 uM", "value": 31, "unit": "%"}
    ]}
  ]
}
